Measured values published in patent US9469650B2, “Melampomagnolide B derivatives” (BOARD OF TRUSTEES OF THE UNIVERSITY OF ARKANSAS, priority 2013, dated 2016).

Key:
SNB-75 = experiment: panel of 60 human tumor cell lines, growth inhibition (CNS Cancer)
HCC-2998 = experiment: panel of 60 human tumor cell lines, growth inhibition (Colon Cancer); details: for Percent Growth: HCC-2998
UACC-62 = experiment: panel of 60 human tumor cell lines, growth inhibition (Melanoma)
DU-145 = experiment: panel of 60 human tumor cell lines, growth inhibition (Prostate Cancer)
SNB-19 = experiment: panel of 60 human tumor cell lines, growth inhibition (CNS Cancer)
KM12 = experiment: panel of 60 human tumor cell lines, growth inhibition (Colon Cancer)
SK-MEL-28 = experiment: panel of 60 human tumor cell lines, growth inhibition (Melanoma)
NCI/ADR-RES = experiment: panel of 60 human tumor cell lines, growth inhibition (Ovarian Cancer)
NCI-H23 = experiment: panel of 60 human tumor cell lines, growth inhibition (Non-Small Cell Lung Cancer)
786-0 = experiment: panel of 60 human tumor cell lines, growth inhibition (Renal Cancer); details: 786-0

## C=C1C(=O)O[C@H]2[C@H]1CC/C(COC(=O)CCC(=O)NCc1ccc(Cl)nc1)=C\CC[C@@]1(C)O[C@@H]21 [JVM 96]
SNB-75; Homo sapiens, SNB-75
  GI50: 4.59 µM
SNB-75; Homo sapiens, SNB-75, read-out: LC50
  CC50: 47 µM
SNB-75; Homo sapiens, SNB-75, read-out: TGI
  IC (TGI): 20.1 µM
SNB-75; SNB-75, Log10 Concentration −4.0
  Percent Growth: −94%
SNB-75; SNB-75, Log10 Concentration −5.0
  Percent Growth: 41%
SNB-75; SNB-75, Log10 Concentration −6.0
  Percent Growth: 68%
SNB-75; SNB-75, Log10 Concentration −7.0
  Percent Growth: 69%
SNB-75; SNB-75, Log10 Concentration −8.0
  Percent Growth: 80%
HCC-2998; Log10 Concentration −4.0
  Percent Growth: −90%
HCC-2998; Log10 Concentration −5.0
  Percent Growth: 76%
HCC-2998; Log10 Concentration −6.0
  Percent Growth: 108%
HCC-2998; Log10 Concentration −7.0
  Percent Growth: 101%
HCC-2998; Log10 Concentration −8.0
  Percent Growth: 99%
HCC-2998; Homo sapiens, HCC 2998
  GI50: 14.4 µM
HCC-2998; Homo sapiens, HCC 2998, read-out: LC50
  CC50: 57.3 µM
HCC-2998; Homo sapiens, HCC 2998, read-out: TGI
  IC (TGI): 28.7 µM
UACC-62; Homo sapiens, UACC-62
  GI50: 6.61 µM
UACC-62; Homo sapiens, UACC-62, read-out: LC50
  CC50: 51.2 µM
UACC-62; Homo sapiens, UACC-62, read-out: TGI
  IC (TGI): 20.9 µM
UACC-62; UACC-62, Log10 Concentration −4.0
  Percent Growth: −87%
UACC-62; UACC-62, Log10 Concentration −5.0
  Percent Growth: 41%
UACC-62; UACC-62, Log10 Concentration −6.0
  Percent Growth: 90%
UACC-62; UACC-62, Log10 Concentration −7.0
  Percent Growth: 98%
UACC-62; UACC-62, Log10 Concentration −8.0
  Percent Growth: 98%
DU-145; DU-145, Log10 Concentration −4.0
  Percent Growth: −97%
DU-145; DU-145, Log10 Concentration −5.0
  Percent Growth: 16%
DU-145; DU-145, Log10 Concentration −6.0
  Percent Growth: 98%
DU-145; DU-145, Log10 Concentration −7.0
  Percent Growth: 106%
DU-145; DU-145, Log10 Concentration −8.0
  Percent Growth: 99%
DU-145; Homo sapiens, DU-145
  GI50: 3.84 µM
DU-145; Homo sapiens, DU-145, read-out: LC50
  CC50: 38.4 µM
DU-145; Homo sapiens, DU-145, read-out: TGI
  IC (TGI): 13.9 µM
SNB-19; Homo sapiens, SNB-19
  GI50: 15.6 µM
SNB-19; Homo sapiens, SNB-19, read-out: LC50
  CC50: > 100 µM
SNB-19; Homo sapiens, SNB-19, read-out: TGI
  IC (TGI): 42.3 µM
SNB-19; SNB-19, Log10 Concentration −4.0
  Percent Growth: −43%
SNB-19; SNB-19, Log10 Concentration −5.0
  Percent Growth: 72%
SNB-19; SNB-19, Log10 Concentration −6.0
  Percent Growth: 88%
SNB-19; SNB-19, Log10 Concentration −7.0
  Percent Growth: 96%
SNB-19; SNB-19, Log10 Concentration −8.0
  Percent Growth: 93%
KM12; Homo sapiens, KM12
  GI50: 17.7 µM
KM12; Homo sapiens, KM12, read-out: LC50
  CC50: 67.9 µM
KM12; KM12
  TGI: 3.46E−5
KM12; KM12, Log10 Concentration −4.0
  Percent Growth: −79%
KM12; KM12, Log10 Concentration −5.0
  Percent Growth: 92%
KM12; KM12, Log10 Concentration −6.0
  Percent Growth: 104%
KM12; KM12, Log10 Concentration −7.0
  Percent Growth: 100%
KM12; KM12, Log10 Concentration −8.0
  Percent Growth: 98%
SK-MEL-28; Homo sapiens, SK-MEL-28
  GI50: 3.44 µM
SK-MEL-28; Homo sapiens, SK-MEL-28, read-out: LC50
  CC50: 46 µM
SK-MEL-28; Homo sapiens, SK-MEL-28, read-out: TGI
  IC (TGI): 14.8 µM
SK-MEL-28; SK-MEL-28, Log10 Concentration −4.0
  Percent Growth: −84%
SK-MEL-28; SK-MEL-28, Log10 Concentration −5.0
  Percent Growth: 17%
SK-MEL-28; SK-MEL-28, Log10 Concentration −6.0
  Percent Growth: 8.8. Percent
SK-MEL-28; SK-MEL-28, Log10 Concentration −7.0
  Percent Growth: 91%
SK-MEL-28; SK-MEL-28, Log10 Concentration −8.0
  Percent Growth: 92%
NCI/ADR-RES; Homo sapiens
  GI50: 31.1 µM
NCI/ADR-RES; Homo sapiens, read-out: LC50
  CC50: > 100 µM
NCI/ADR-RES; Homo sapiens, read-out: TGI
  IC (TGI): > 100 µM
NCI/ADR-RES; Log10 Concentration −4.0
  Percent Growth: 6%
NCI/ADR-RES; Log10 Concentration −5.0
  Percent Growth: 93%
NCI/ADR-RES; Log10 Concentration −6.0
  Percent Growth: 107%
NCI/ADR-RES; Log10 Concentration −7.0
  Percent Growth: 101%
NCI/ADR-RES; Log10 Concentration −8.0
  Percent Growth: 101%
NCI-H23; Homo sapiens, NCI-H23
  GI50: 18.4 µM
NCI-H23; Homo sapiens, NCI-H23, read-out: LC50
  CC50: > 100 µM
NCI-H23; Homo sapiens, NCI-H23, read-out: TGI
  IC (TGI): 45.7 µM
NCI-H23; NCI-H23, Log10 Concentration −4.0
  Percent Growth: −43%
NCI-H23; NCI-H23, Log10 Concentration −5.0
  Percent Growth: 83%
NCI-H23; NCI-H23, Log10 Concentration −6.0
  Percent Growth: 103%
NCI-H23; NCI-H23, Log10 Concentration −7.0
  Percent Growth: 103%
NCI-H23; NCI-H23, Log10 Concentration −8.0
  Percent Growth: 96%
786-0; Log10 Concentration −4.0
  Percent Growth: −91%
786-0; Log10 Concentration −5.0
  Percent Growth: 26%
786-0; Log10 Concentration −6.0
  Percent Growth: 94%
786-0; Log10 Concentration −7.0
  Percent Growth: 92%
